# Test results: ChEMBL document CHEMBL1201862, “PubChem BioAssay data set” (2004)
#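 48-hour exposure; five concentrations; linearly interpolated endpoints. Abbreviation: GI50, concentration required for 50% inhibition of growth.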 The source made the active and inactive calls. No stated cut-off is given here; in the data, active = GI50 up to about 1.1 µM and inactive = higher.
# Tests used:
# Test in all cases: inhibition of tumour cell growth, NCI panel, 48 h
# [1] = test system: ACHN
# [2] = test system: CAKI-1
# [3] = test system: CCRF-CEM
# [4] = test system: DU-145
# [5] = test system: HOP-92
# [6] = test system: K562
# [7] = test system: MDA-MB-231
# [8] = test system: MDA-MB-435
# [9] = test system: MDA-N
# [10] = test system: MOLT-4
# [11] = test system: NCI-H460
# [12] = test system: NCI/ADR-RES
# [13] = test system: RPMI-8226
# [14] = test system: RXF 393
# [15] = test system: SF-268
# [16] = test system: SF-539
# [17] = test system: SN12C
# [18] = test system: SNB-75
# [19] = test system: SW-620
# [20] = test system: XF498
Structure (SMILES),GI50 [1],GI50 [2],GI50 [3],GI50 [4],GI50 [5],GI50 [6],GI50 [7],GI50 [8],GI50 [9],GI50 [10],GI50 [11],GI50 [12],GI50 [13],GI50 [14],GI50 [15],GI50 [16],GI50 [17],GI50 [18],GI50 [19],GI50 [20]
CCN(CC)c1ccc(C(=C2C=CC(=[N+](CC)CC)C=C2)c2ccc(N(CC)CC)cc2)cc1,0.0446 µM (active),0.21 µM (active),0.0593 µM (active),0.0708 µM (active),0.211 µM (active),0.0353 µM (active),0.063 µM (active),0.111 µM (active),0.103 µM (active),0.115 µM (active),0.0411 µM (active),0.521 µM (active),0.0342 µM (active),0.18 µM (active),0.084 µM (active),0.195 µM (active),0.0522 µM (active),0.104 µM (active),0.0711 µM (active),0.0296 µM (active)
CN(C)CC1(C)CC/C(=C\c2ccccc2)C1=O (centres undefined),> 100 µM (inactive),> 100 µM (inactive),43.1 µM (inactive),,> 100 µM (inactive),> 100 µM (inactive),,,,> 100 µM (inactive),> 100 µM (inactive),,27.5 µM (inactive),> 100 µM (inactive),> 100 µM (inactive),> 100 µM (inactive),> 100 µM (inactive),> 100 µM (inactive),63.1 µM (inactive),> 100 µM (inactive)
S=c1nc(N2CCCCC2)ss1,27 µM (inactive),27.7 µM (inactive),11.7 µM (inactive),,17.5 µM (inactive),18.4 µM (inactive),,,,12.4 µM (inactive),22.3 µM (inactive),,2.75 µM (inactive),16.7 µM (inactive),21.1 µM (inactive),18.9 µM (inactive),17 µM (inactive),24.4 µM (inactive),24.8 µM (inactive),20.1 µM (inactive)
COC(=O)N/N=C/C(=C/Nc1ccccc1)[N+](=O)[O-],> 100 µM (inactive),,> 100 µM (inactive),,21 µM (inactive),> 100 µM (inactive),,,,> 100 µM (inactive),> 100 µM (inactive),,> 100 µM (inactive),> 100 µM (inactive),> 100 µM (inactive),,> 100 µM (inactive),,> 100 µM (inactive),> 100 µM (inactive)
O=C1CCCC[C@H]1[C@H]1CCC[C@@H]([C@H]2CCCCC2=O)C1=O,> 100 µM (inactive),> 100 µM (inactive),> 100 µM (inactive),,> 100 µM (inactive),> 100 µM (inactive),,,,> 100 µM (inactive),> 100 µM (inactive),,> 100 µM (inactive),> 100 µM (inactive),> 100 µM (inactive),> 100 µM (inactive),> 100 µM (inactive),> 100 µM (inactive),> 100 µM (inactive),> 100 µM (inactive)
C/C(=N\NC(=O)CC(=O)Nc1ccc(Cl)cc1)c1cc2ccccc2oc1=O,> 100 µM (inactive),,> 100 µM (inactive),,,> 100 µM (inactive),,,,> 100 µM (inactive),> 100 µM (inactive),,> 100 µM (inactive),> 100 µM (inactive),,> 100 µM (inactive),> 100 µM (inactive),66.1 µM (inactive),> 100 µM (inactive),> 100 µM (inactive)
CCCN(CCCCC(NC(C)=O)C(=O)NCc1ccccc1)C(=O)N(C)N=O (centres undefined),> 100 µM (inactive),> 100 µM (inactive),> 100 µM (inactive),,> 100 µM (inactive),> 100 µM (inactive),,,,92 µM (inactive),> 100 µM (inactive),,> 100 µM (inactive),> 100 µM (inactive),> 100 µM (inactive),> 100 µM (inactive),> 100 µM (inactive),38.1 µM (inactive),> 100 µM (inactive),> 100 µM (inactive)
C/C(=N\NC(N)=S)C(CN(CC(C)C)CC(C)C)C(=O)Nc1ccc(C)cc1C (centres undefined),> 100 µM (inactive),> 100 µM (inactive),> 100 µM (inactive),,> 100 µM (inactive),> 100 µM (inactive),,,,> 100 µM (inactive),> 100 µM (inactive),,,> 100 µM (inactive),> 100 µM (inactive),> 100 µM (inactive),> 100 µM (inactive),90.6 µM (inactive),> 100 µM (inactive),> 100 µM (inactive)
Cc1ccccc1C1=[N+]([O-])c2ccc(Cl)cc2C1=O,12.9 µM (inactive),,3.82 µM (inactive),,14.8 µM (inactive),6.12 µM (inactive),,,,3.6 µM (inactive),15.4 µM (inactive),,3.31 µM (inactive),20 µM (inactive),18.5 µM (inactive),17.7 µM (inactive),15.2 µM (inactive),19.8 µM (inactive),25.4 µM (inactive),4.39 µM (inactive)
O=S(=O)(c1ccccc1)N1CCC1c1ccccc1 (centres undefined),> 100 µM (inactive),,> 100 µM (inactive),,26.1 µM (inactive),54.3 µM (inactive),,,,33.7 µM (inactive),> 100 µM (inactive),,43.2 µM (inactive),> 100 µM (inactive),87.1 µM (inactive),> 100 µM (inactive),> 100 µM (inactive),56.4 µM (inactive),> 100 µM (inactive),51.9 µM (inactive)
Sc1ccccc1S,> 100 µM (inactive),> 100 µM (inactive),,,> 100 µM (inactive),> 100 µM (inactive),,,,,> 100 µM (inactive),,,> 100 µM (inactive),> 100 µM (inactive),,> 100 µM (inactive),,> 100 µM (inactive),> 100 µM (inactive)
COc1cccc2c1C(=O)c1c(O)c3c(c(O)c1C2=O)CC(O)(C(C)=O)CC3OC1CC([N+](C)(C)C)C(O)C(C)O1 (centres undefined),> 100 µM (inactive),> 100 µM (inactive),48.1 µM (inactive),,> 100 µM (inactive),23.1 µM (inactive),,,,12.4 µM (inactive),36.4 µM (inactive),,22.5 µM (inactive),> 100 µM (inactive),> 100 µM (inactive),47.2 µM (inactive),50.7 µM (inactive),52.2 µM (inactive),56.1 µM (inactive),10.7 µM (inactive)
N#C[C-](C#N)[n+]1ccc(Cl)cc1,,3.53 µM (inactive),9.27 µM (inactive),,15.3 µM (inactive),3.03 µM (inactive),,,,12.7 µM (inactive),22.5 µM (inactive),,4.79 µM (inactive),16.7 µM (inactive),14.4 µM (inactive),20.4 µM (inactive),14.4 µM (inactive),17.5 µM (inactive),10.9 µM (inactive),19.3 µM (inactive)
COS(=O)CCOC(=O)c1ccccc1SSc1ccccc1C(=O)OCCS(=O)OC (centres undefined),43.7 µM (inactive),27.2 µM (inactive),3.79 µM (inactive),,25.1 µM (inactive),20.6 µM (inactive),,,,3.44 µM (inactive),> 100 µM (inactive),,18.9 µM (inactive),14.2 µM (inactive),32.3 µM (inactive),25.3 µM (inactive),26.1 µM (inactive),6.31 µM (inactive),31 µM (inactive),29.8 µM (inactive)
CCN(CC)CCCNc1ncc(C)c2c1c1ccc3c(O)cccc3c1n2C,1.8 µM (inactive),0.449 µM (active),0.392 µM (active),1.57 µM (inactive),9.16 µM (inactive),1.5 µM (inactive),1.57 µM (inactive),8.07 µM (inactive),1.65 µM (inactive),0.043 µM (active),1.02 µM (active),2.81 µM (inactive),1.47 µM (inactive),1.95 µM (inactive),2.5 µM (inactive),2.11 µM (inactive),2.7 µM (inactive),1.81 µM (inactive),0.883 µM (active),15.2 µM (inactive)
Nc1ncnc2c1nc(Cl)n2[C@@H]1O[C@@H]2COP(=O)(O)O[C@H]2[C@H]1O [TOCLADESINE],5.05 µM (inactive),3.61 µM (inactive),3.48 µM (inactive),12.5 µM (inactive),12.2 µM (inactive),2.82 µM (inactive),21.5 µM (inactive),5.41 µM (inactive),10.9 µM (inactive),7 µM (inactive),7.03 µM (inactive),6.67 µM (inactive),6.47 µM (inactive),7.35 µM (inactive),32 µM (inactive),49 µM (inactive),12.6 µM (inactive),31.8 µM (inactive),12.1 µM (inactive),
